For 13 molecules, IC50 results are on record in US20130244999A1, “Substituted Heterocyclic Compounds” (Incyte Corporation, priority 2008, published 2013).

T1 sequence (Q9H3N8 whole entry): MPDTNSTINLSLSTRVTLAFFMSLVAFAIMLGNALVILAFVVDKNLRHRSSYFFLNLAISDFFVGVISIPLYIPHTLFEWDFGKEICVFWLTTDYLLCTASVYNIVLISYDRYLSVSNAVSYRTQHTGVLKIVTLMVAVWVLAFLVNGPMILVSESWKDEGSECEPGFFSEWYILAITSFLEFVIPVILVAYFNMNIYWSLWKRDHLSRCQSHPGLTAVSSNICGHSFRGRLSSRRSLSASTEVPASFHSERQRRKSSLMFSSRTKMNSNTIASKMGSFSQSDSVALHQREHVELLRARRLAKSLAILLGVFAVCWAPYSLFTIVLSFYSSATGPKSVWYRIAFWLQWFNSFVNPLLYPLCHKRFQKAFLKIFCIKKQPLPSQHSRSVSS

The experiment has as its target T1, histamine H4 receptor (Homo sapiens, UniProt Q9H3N8).
T1 construct: expressed in transfected cells; host or cells: HEK293SFM cells (membrane preparation)
Kind of experiment: Inhibition of histamine H4 receptor (Table A1; H4 membrane binding assay). The conditions noted are these: histamine H4 receptor; "> a" = exceeds experiment limit. Put shortly:
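Radioligand binding was measured by filtration through PEI-treated GF/B filters with scintillation counting, using 1000× unlabeled ligand to define nonspecific binding. Membranes were prepared from HEK293SFM cells recombinantly expressing human H4 in ice-cold 50 mM Tris-HCl, pH 7.5, plus protease inhibitors.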
As a reminder, the IC50 is the point on the concentration scale where inhibition reaches its midpoint. Read a low IC50 as inhibition by little substance. Consider `CC(C)OC(=O)N1CCC(c2ccc3c(c2)CN(c2cc(N4CCN(C)CC4)nc(N)n2)C(C)C3)CC1` (stereo not shown) [Example 139, Isopropyl 4-{2-[2-amino-6-(4-methylpiperazin-1-yl)pyrimidin-4-yl]-3-methyl-1,2,3,4-tetrahydroisoquinolin-7-yl}piperidine-1-carboxylate], for which the IC50 worked out at 54 nM.

In turn, `CC(C)NC(=O)N1CCC(c2ccc3c(c2)CN(c2cc(N4CCN(C)CC4)nc(N)n2)C(C)C3)CC1` (stereo not shown) [Example 140, 4-{2-[2-Amino-6-(4-methylpiperazin-1-yl)pyrimidin-4-yl]-3-methyl-1,2,3,4-tetrahydroisoquinolin-7-yl}-N-isopropylpiperidine-1-carboxamide] showed an IC50 of 80 nM. Take `CC1Cc2ccc(C3CCN(C(=O)N(C)C)CC3)cc2CN1c1cc(N2CCN(C)CC2)nc(N)n1` (stereo not shown) [Example 141, 4-{2-[2-Amino-6-(4-methylpiperazin-1-yl)pyrimidin-4-yl]-3-methyl-1,2,3,4-tetrahydroisoquinolin-7-yl}-N,N-dimethylpiperidine-1-carboxamide]: the IC50 was found to be 40 nM. This IC50 is about 2-fold lower than that of the molecule before. On to `CC1Cc2ccc(C3CCN(C(=O)N(C)C)CC3)cc2CN1c1cc(N2CCN(C)CC2)nc(N)n1` (stereo not shown) [Example 144, 4-{2-[2-Amino-6-(4-methylpiperazin-1-yl)pyrimidin-4-yl]-3-methyl-1,2,3,4-tetrahydroisoquinolin-7-yl}-N,N-dimethylpiperidine-1-carboxamide], for which the IC50 was 24 nM. To `CCNC(=O)N1CCC(c2ccc3c(c2)CN(c2cc(N4CCN(C)CC4)nc(N)n2)C(C)C3)CC1` (stereo not shown) [Example 145, 4-{2-[2-Amino-6-(4-methylpiperazin-1-yl)pyrimidin-4-yl]-3-methyl-1,2,3,4-tetrahydroisoquinolin-7-yl}-N-ethylpiperidine-1-carboxamide] belongs 36 nM; to `CC(=O)N1CCC(c2ccc3c(c2)CN(c2cc(N4CCN(C)CC4)nc(N)n2)C(C)C3)CC1` (stereo not shown) [Example 146, 4-[7-(1-Acetylpiperidin-4-yl)-3-methyl-3,4-dihydroisoquinolin-2 (1H)-yl]-6-(4-methylpiperazin-1-yl)pyrimidin-2-amine], 22.8 nM.

In the case of `COC(=O)N1CCC(c2ccc3c(c2)CN(c2cc(N4CCN(C)CC4)nc(N)n2)C(C)C3)CC1` (stereo not shown) [Example 147, Methyl 4-{2-[2-amino-6-(4-methylpiperazin-1-yl)pyrimidin-4-yl]-3-methyl-1,2,3,4-tetrahydroisoquinolin-7-yl}piperidine-1-carboxylate], the half-maximal inhibitory concentration (IC50) is 12.1 nM. The molecule `CC1Cc2ccc(C3CCN(S(C)(=O)=O)CC3)cc2CN1c1cc(N2CCN(C)CC2)nc(N)n1` (stereo not shown) [Example 148, 4-[3-Methyl-7-[1-(methylsulfonyl)piperidin-4-yl]-3,4-dihydroisoquinolin-2(1H)-yl]-6-(4-methylpiperazin-1-yl)pyrimidin-2-amine] had an IC50 of 30.6 nM.

The molecule `CCC(=O)N1CCC(c2ccc3c(c2)CN(c2cc(N4CCN(C)CC4)nc(N)n2)C(C)C3)CC1` (stereo not shown) [Example 149, 4-(4-Methylpiperazin-1-yl)-6-[3-methyl-7-(1-propionylpiperidin-4-yl)-3,4-dihydroisoquinolin-2 (1H)-yl]pyrimidin-2-amine] returned an IC50 of 26.1 nM. As for `CC1Cc2ccc(C3CCN(C(=O)C4CC4)CC3)cc2CN1c1cc(N2CCN(C)CC2)nc(N)n1` (stereo not shown) [Example 150, 4-[7-[1-(Cyclopropylcarbonyl)piperidin-4-yl]-3-methyl-3,4-dihydroisoquinolin-2(1H)-yl]-6-(4-methylpiperazin-1-yl)pyrimidin-2-amine], the figure is 22.5 nM; as for `CNC(=O)N1CCC(c2ccc3c(c2)CN(c2cc(N4CCN(C)CC4)nc(N)n2)C(C)C3)CC1` (stereo not shown) [Example 151, 4-{2-[2-Amino-6-(4-methylpiperazin-1-yl)pyrimidin-4-yl]-3-methyl-1,2,3,4-tetrahydroisoquinolin-7-yl}-N-methylpiperidine-1-carboxamide], 42.1 nM; as for `CCS(=O)(=O)N1CCC(c2ccc3c(c2)CN(c2cc(N4CCN(C)CC4)nc(N)n2)C(C)C3)CC1` (stereo not shown) [Example 152, 4-[7-[1-(Ethylsulfonyl)piperidin-4-yl]-3-methyl-3,4-dihydroisoquinolin-2(1H)-yl]-6-(4-methylpiperazin-1-yl)pyrimidin-2-amine], 17.6 nM. As for `CC1Cc2ccc(-c3ccnc(C(=O)N4CC(O)C4)c3)cc2CN1c1cc(N2CCN(C)CC2)nc(N)n1` (stereo not shown) [Example 153, 1-[(4-{2-[2-Amino-6-(4-methylpiperazin-1-yl)pyrimidin-4-yl]-3-methyl-1,2,3,4-tetrahydroisoquinolin-7-yl}pyridin-2-yl)carbonyl]azetidin-3-ol], the figure is 27 nM.
